Reference: patent US20050282818A1, “Ubiquitin ligase inhibitors” (Rigel Pharmaceuticals, Inc., priority 2004, published 2005)
Read-outs that look alike come from different tables or passages of the source.

Experiments:
TRAF6/Uev1A/Ubc13 = molecular target: T1, TRAF6/Uev1A/Ubc13 (Homo sapiens, UniProt Q9Y4K3); assay: TRAF6/Uev1A/Ubc13 plate-based ubiquitin ligase assay; assay type: biochemical
T1 sequence (Q9Y4K3 1-522): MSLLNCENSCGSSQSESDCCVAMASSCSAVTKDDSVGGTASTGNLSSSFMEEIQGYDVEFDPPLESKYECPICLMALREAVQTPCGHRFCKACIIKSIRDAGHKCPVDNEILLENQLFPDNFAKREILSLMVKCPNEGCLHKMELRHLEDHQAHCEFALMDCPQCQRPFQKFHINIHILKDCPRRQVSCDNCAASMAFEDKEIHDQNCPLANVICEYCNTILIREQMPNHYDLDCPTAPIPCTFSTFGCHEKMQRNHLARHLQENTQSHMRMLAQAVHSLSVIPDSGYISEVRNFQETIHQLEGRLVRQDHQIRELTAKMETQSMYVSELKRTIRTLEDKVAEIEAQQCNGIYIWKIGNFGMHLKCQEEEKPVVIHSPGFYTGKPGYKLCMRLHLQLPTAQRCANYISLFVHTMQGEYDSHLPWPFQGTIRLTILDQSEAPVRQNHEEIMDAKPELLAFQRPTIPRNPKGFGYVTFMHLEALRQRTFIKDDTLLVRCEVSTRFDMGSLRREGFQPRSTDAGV
In short: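 Ligase activity was read as luminescence from anti-Flag/HRP detection of Flag-ubiquitin bound to casein-blocked Ni-plates alongside His-ubiquitin after a 1 h room-temperature reaction. Buffer: 62.5 mM Tris pH 7.5, 6.25 mM MgCl2, 1.0 mM DTT, 2 μM ATP; E1, Uev1a/Ubc13 and TRAF6 added last to start. IC50s derived across compound concentrations.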

A549 cells = assay: Cell proliferation PAD assay, A549; assay type: cell-based; details: Homo sapiens, 48 hours
In short: (§1)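 Cells were seeded at 2,000 per well and dosed 24 h later, in duplicate, with 6.3-fold dilution series from a 10 mM master stock diluted 500-fold into wells. After 48 h at 37 °C, 5% CO2, cells were formamide-fixed, DAPI-stained and imaged to count live, apoptotic and dead cells.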

H1299 cells = assay: Cell proliferation PAD assay, H1299; assay type: cell-based; details: Homo sapiens, 48 hours
In short: as §1

[1] = NCI-H1299, 3pt, read-out: H1299 3pt
[2] = NCI-H1299, 6pt, read-out: H1299 6pt

Compound	IC50 (TRAF6/Uev1A/Ubc13) [µM]	IC50 (A549 cells; 3pt, read-out: A549 3pt) [µM]	IC50 (A549 cells; 6pt, read-out: A549 6pt) [µM]	IC50 (H1299 cells; [1]) [µM]	IC50 (H1299 cells; [2]) [µM]
O=S(=O)(c1c(Cl)ccc2nonc12)N1CCN(c2ncc(C(F)(F)F)cc2Cl)CC1 [compound 179, 5-chloro-4-({4-[3-chloro-5-(trifluoromethyl)pyridin-2-yl]piperazin-1-yl}sulfonyl)-2,1,3-benzoxadiazole]	1 to 20	1 to 20	1 to 20	1 to 20	< 1
N#Cc1ccccc1N1CCN(S(=O)(=O)c2c(Cl)ccc3nonc23)CC1 [compound 180, 2-{4-[(5-chloro-2,1,3-benzoxadiazol-4-yl)sulfonyl]piperazin-1-yl}benzonitrile]	≥ 20	1 to 20	≥ 20	1 to 20	≥ 20
O=S(=O)(c1c(N2CCN(c3ccc(Cl)c(C(F)(F)F)c3)CC2)ccc2nonc12)N1CCN(c2ccc(Cl)c(C(F)(F)F)c2)CC1 [compound 181, 5-{4-[4-chloro-3-(trifluoromethyl)phenyl]piperazin-1-yl}-4-({4-[4-chloro-3-(trifluoromethyl)phenyl]piperazin-1-yl}sulfonyl)-2,1,3-benzoxadiazole]	1 to 20	≥ 20	1 to 20	≥ 20	≥ 20
O=S(=O)(c1ccc(Cl)c2nonc12)N1CCN(c2ncccn2)CC1 [compound 184, 4-chloro-7-[(4-pyrimidin-2-ylpiperazin-1-yl)sulfonyl]-2,1,3-benzoxadiazole]	≥ 20	1 to 20	≥ 20	1 to 20	≥ 20
O=S(=O)(c1ccc(Cl)c2nonc12)N1CCN(c2ccccc2)CC1 [compound 186, 4-chloro-7-[(4-phenylpiperazin-1-yl)sulfonyl]-2,1,3-benzoxadiazole]	≥ 20	1 to 20	1 to 20	1 to 20	< 1
O=c1[nH]c2ccccc2n1C1CCN(S(=O)(=O)c2ccc(Cl)c3nonc23)CC1 [compound 188, 1-{1-[(7-chloro-2,1,3-benzoxadiazol-4-yl)sulfonyl]piperidin-4-yl}-1,3-dihydro-2H-benzimidazol-2-one]	≥ 20	1 to 20	≥ 20	1 to 20	< 1
CC1CC(C)CN(S(=O)(=O)c2ccc(Cl)c3nonc23)C1 (stereo not shown) [compound 192, 4-chloro-7-[(3,5-dimethylpiperidin-1-yl)sulfonyl]-2,1,3-benzoxadiazole]	≥ 20	1 to 20	≥ 20	1 to 20	≥ 20
N#CC1(c2ccccc2)CCN(S(=O)(=O)c2ccc(O)c3nonc23)CC1 [compound 199, 1-[(7-hydroxy-2,1,3-benzoxadiazol-4-yl)sulfonyl]-4-phenylpiperidine-4-carbonitrile]	≥ 20	1 to 20	≥ 20	1 to 20	≥ 20
O=S(=O)(c1c(Cl)ccc2nonc12)N1CCN(c2cnccn2)CC1 [compound 200, 5-chloro-4-[(4-pyrazin-2-ylpiperazin-1-yl)sulfonyl]-2,1,3-benzoxadiazole]	≥ 20	1 to 20	≥ 20	1 to 20	< 1
CC(=O)N1CCN(S(=O)(=O)c2c(Cl)ccc3nonc23)CC1 [compound 201, 4-[(4-acetylpiperazin-1-yl)sulfonyl]-5-chloro-2,1,3-benzoxadiazole]	≥ 20	1 to 20	≥ 20	1 to 20	< 1
Cc1cccc(N2CCN(S(=O)(=O)c3c(Cl)ccc4nonc34)CC2)n1 [compound 202, 5-chloro-4-{[4-(6-methylpyridin-2-yl)piperazin-1-yl]sulfonyl}-2,1,3-benzoxadiazole]	≥ 20	1 to 20	< 1	1 to 20	< 1
